Literature values as cited in patent US20140296830A1 (priority 2013, published 2014).

Legend:
[1] = pH 4
[2] = versus mepivacaine and lidocaine

Row | Compound | solution stability [1] | potency relative to mepivacaine and lidocaine [2]
1 | CSCC[C@@H]1NC(=O)[C@H](CC(C)C)NC(=O)[C@H](CCCNC(=N)N)NC(=O)[C@H](CO)NC(=O)[C@@H]2CSSC[C@@H]3NC(=O)[C@H](CO)NC(=O)CNC(=O)[C@H]([C@@H](C)O)NC(=O)[C@H](CSSC[C@H](N)C(=O)N[C@@H](CCCCN)C(=O)NCC(=O)N[C@@H](CCCCN)C(=O)NCC(=O)N[C@@H](C)C(=O)N[C@@H](CCCCN)C(=O)N2)NC(=O)[C@H](CSSC[C@@H](C(N)=O)NC(=O)[C@H](CCCCN)NC(=O)CNC(=O)[C@H](CO)NC(=O)[C@H](CCCNC(=N)N)NC3=O)NC(=O)[C@H](CC(=O)O)NC(=O)[C@H](Cc2ccc(O)cc2)NC1=O [ziconotide] | stable at 45 °C for weeks | –
2 | CCCCN1CCCCC1C(=O)Nc1c(C)cccc1C (centres unmarked) [bupivacaine] | – | about 4 times
